Test results from publication PMC6472337, “L amino acid transporter structure and molecular bases for the asymmetry of substrate interaction” (Nature Communications, 2019).
Values joined by “and” are separate entries in the source; they are usually repeats but may differ in a detail not shown here. Equal values may be shown once. Read-outs that look alike come from different tables or passages of the source.

How the values were obtained:
BasC K154A mutant = assay: [3H]L-alanine transport in BasC K154A proteoliposomes; format: biochemical, Carnobacterium sp AT7; parameters: V/[L-Ala]: unit not given here; settings: for V/[L-Ala]: Eadie-Hofstee, n=1-3 and mean
Protocol: BasC was overexpressed as a C-terminal fusion with GFP in E. coli BL21 Star (DE3) cells grown in LB media. Single point mutations (Supplementary Table 2) were introduced using the QuikChange site-directed mutagenesis kit (Stratagene, San Diego, CA). All mutations were verified by sequencing. Expression was induced with 0.1 mM isopropyl-ß-D-thiogalactopyranoside at 37 °C for 22 h. Cells were harvested at 5000 × g for 15 min at 4 °C and stored at −80 °C until use. Cell pellets were thawed and resuspended in 20 mM Tris-Base, 150 mM NaCl, pH 7.4. Cells were pelleted again at 5000 × g for 15 min at 4 °C, resuspended in lysis buffer (20 mM Tris-Base, 350 mM NaCl, pH 7.4, 1 mM pefabloc and complete mini protease inhibitor cocktail) (Roche, Basel Switzerland) and then broken using a Cell Disruptor (four cycles at 20,000 psi; Constant Systems Ltd., Daventry, UK). Cell debris was removed by centrifugation (15,000 × g for 1 h at 4 °C), and the supernatant was subjected to ultracentrifugation (200,000 × g for 2 h at 4 °C). The membrane pellet was resuspended in 20 mM Tris-Base, 150 mM NaCl, pH 7.4 and 10% glycerol at a protein concentration of 8–12 mg ml^−1, and then frozen in liquid nitrogen and stored at −80 °C until use.
(§1) BasC-GFP protein was reconstituted in E. coli polar lipids (Sigma-Aldrich, Madrid, Spain), as previously described. Lipids were dried under N2 and suspended in reconstitution buffer (20 mM Tris-Base, 150 mM NaCl, pH 7.4). The suspension was sonicated to clarity and purified BasC protein was added to reach the desired protein to lipid ratio of 1:100 (w:w). To destabilize the liposomes, 1.25% ß-D-octylglucoside was added and the mixture was incubated on ice with occasional agitation for 5 min. DDM and ß-D-octylglucoside were removed by dialysis for 40 h at 4 °C against 100 volumes of dialysis buffer. Proteoliposome (PL) suspensions were frozen in liquid N2 and stored at −80 °C until use.
(§2) For uptake experiments, the desired intraliposomal amino acid concentration was added to the PL suspension, which was then subjected to three freeze/thaw cycles. The extraliposomal amino acid content was then removed by ultracentrifugation (100,000 × g for 1 h at 4 °C) and PLs were resuspended to one-third of the initial volume with reconstitution buffer. Amino acid uptake assays were initiated after mixing 10 μl of cold PLs with 180 μl of transport buffer (20 mM Tris-Base, 150 mM NaCl, pH 7.4 plus 0.5–1 µCi/180 µl of radiolabeled L-amino acid (Perkin Elmer, Waltham, MA)) supplemented with the unlabeled amino acid to the desired concentration. This mixture was then incubated at room temperature for the indicated periods. […] Filters were then washed twice with 2 ml of stop buffer and dried, and the trapped radioactivity was counted. Transport measured in PLs containing no amino acid was subtracted from each data point to calculate the net exchange. […] BasC protein in PLs was determined by Coomassie blue staining in SDS-PAGE gels compared with known amounts of BasC in DDM micelles, determined by BCA assay (Pierce, Rockford, IL) and loaded in the same gel.

hAsc-1 K194A mutant = target: T1, hAsc-1 K194A mutant (Homo sapiens, UniProt Q9NS82, K194A); assay: [3H]L-alanine uptake in HeLa cells, hAsc-1 K194A
T1 sequence (Q9NS82 1-523 K194A): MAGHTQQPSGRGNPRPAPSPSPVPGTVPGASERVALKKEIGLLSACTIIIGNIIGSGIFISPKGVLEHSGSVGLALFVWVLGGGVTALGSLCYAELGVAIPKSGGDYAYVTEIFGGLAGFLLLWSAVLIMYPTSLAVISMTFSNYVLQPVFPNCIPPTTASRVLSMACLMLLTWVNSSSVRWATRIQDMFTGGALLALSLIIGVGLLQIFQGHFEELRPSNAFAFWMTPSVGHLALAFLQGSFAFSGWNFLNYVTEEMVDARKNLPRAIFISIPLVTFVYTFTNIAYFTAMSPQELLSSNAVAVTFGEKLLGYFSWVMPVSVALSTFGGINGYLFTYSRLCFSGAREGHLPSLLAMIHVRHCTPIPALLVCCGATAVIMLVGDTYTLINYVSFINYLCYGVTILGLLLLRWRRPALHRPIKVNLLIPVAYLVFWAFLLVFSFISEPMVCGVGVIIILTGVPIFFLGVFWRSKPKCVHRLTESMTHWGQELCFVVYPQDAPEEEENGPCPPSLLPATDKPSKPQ
T1 sequence (P08195 1-529 partner): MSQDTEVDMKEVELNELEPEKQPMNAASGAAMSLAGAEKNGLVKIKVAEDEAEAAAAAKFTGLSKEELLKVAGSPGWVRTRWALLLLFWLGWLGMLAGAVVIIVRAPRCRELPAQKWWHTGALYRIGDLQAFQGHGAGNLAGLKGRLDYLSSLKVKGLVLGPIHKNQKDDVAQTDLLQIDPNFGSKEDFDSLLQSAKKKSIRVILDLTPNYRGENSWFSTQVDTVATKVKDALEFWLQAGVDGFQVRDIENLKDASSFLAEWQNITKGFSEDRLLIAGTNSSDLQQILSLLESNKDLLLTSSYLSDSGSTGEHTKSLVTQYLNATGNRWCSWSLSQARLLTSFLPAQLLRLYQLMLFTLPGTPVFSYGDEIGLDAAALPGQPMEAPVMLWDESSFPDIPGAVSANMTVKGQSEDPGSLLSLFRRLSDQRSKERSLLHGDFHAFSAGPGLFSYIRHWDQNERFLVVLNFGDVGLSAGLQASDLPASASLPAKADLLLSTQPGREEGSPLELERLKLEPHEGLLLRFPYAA

BasC wild-type = assay: [3H]L-alanine transport (influx, efflux, exchange) in BasC proteoliposomes; format: biochemical, Carnobacterium sp AT7; settings: for V: 4 mM L-alanine inside PLs, without Nb74
Protocol: as §1, §2

**Q.** With `C[C@H](N)C(=O)O` [L-alanine] as the compound, how does the Vmax (BasC K154A mutant) read?
**A.** 0.32 ± 0.04 pmols L-alanine µg protein^−1 s^−1

**Q.** And the “reduction of Vmax vs. wild-type” value (BasC K154A mutant)?
**A.** ~ 10 fold

**Q.** And the “reduction of extracellular apparent affinity vs. wild-type” value (BasC K154A mutant)?
**A.** ~ 10 fold

**Q.** What about the “V/[L-Ala]” value (BasC K154A mutant; extracellular side, L-alanine 100 μM) of the same compound?
**A.** 0.0007 and 0.0010 and 0.0009

**Q.** And the “V/[L-Ala]” value (BasC K154A mutant; extracellular side, L-alanine 500 μM)?
**A.** 0.000458 and 0.000473 and 0.0005

**Q.** And the Km (BasC K154A mutant; extracellular side, 5 µM Nb74, read-out: Km (o))?
**A.** 474 ± 42 µM

**Q.** What about the Km (BasC K154A mutant; intracellular side, 5 µM Nb74, read-out: Km (i)) of the same compound?
**A.** 2040 ± 370 µM

**Q.** And the “reduction of Vmax vs. wild-type” value (hAsc-1 K194A mutant)?
**A.** ~ 10 fold

**Q.** What about the “reduction of external apparent affinity vs. wild-type” value (hAsc-1 K194A mutant) of the same compound?
**A.** ~ 10 fold

**Q.** And the “saturation of the transporter at 4 mM intraliposomal L-alanine” value (BasC wild-type; BasC wild-type)?
**A.** about 80%

**Q.** What about the “V/[L-Ala]” value (BasC wild-type; Eadie-Hofstee, L-alanine 800 μM, with 5 µM Nb74, n=1-3 and mean) of the same compound?
**A.** 0.010 pmol µg prot-1 s-1µM-1

**Q.** And the Km (BasC wild-type; L-alanine concentrations up to 800 µM, absence of Nb74, read-out: extracellular Km)?
**A.** 65 ± 12 µM

**Q.** What about the V (BasC wild-type; external [3H]L-alanine 100 μM, n=1-3 and mean) of the same compound?
**A.** 5.346 pmol L-Ala μg BasC-1 s-1 and 5.124 pmol L-Ala μg BasC-1 s-1 and 4.879 pmol L-Ala μg BasC-1 s-1

**Q.** And the V (BasC wild-type; external [3H]L-alanine 200 μM, n=1-3 and mean)?
**A.** 7.346 pmol L-Ala μg BasC-1 s-1 and 6.582 pmol L-Ala μg BasC-1 s-1 and 6.938 pmol L-Ala μg BasC-1 s-1

**Q.** And the V (BasC wild-type; external [3H]L-alanine 400 μM, n=1-3 and mean)?
**A.** 7.143 pmol L-Ala μg BasC-1 s-1 and 6.357 pmol L-Ala μg BasC-1 s-1 and 9.257 pmol L-Ala μg BasC-1 s-1

**Q.** And the Km (BasC wild-type; extracellular side, wild-type, read-out: Km (o))?
**A.** 53.7 ± 3.97 µM

**Q.** And the Km (BasC wild-type; full range kinetics inhibited by 5 µM Nb74, read-out: extracellular Km)?
**A.** 46 ± 9 µM

**Q.** And the Km (BasC wild-type; intracellular side, wild-type, read-out: Km (i))?
**A.** 2220 ± 150 µM

**Q.** What about the Vmax (BasC wild-type; wild-type) of the same compound?
**A.** 6.37 ± 0.70 pmols L-alanine µg protein^−1 s^−1
